Here are results for three compounds from US20050085539A1, “Method of reducing toxicity of retinoids” (priority 2003, published 2005).

Holding throughout (format): in vivo, rat
For series [1], the system named is vitamin A-deficient rats. The experiment in a line: Growth of vitamin A-deficient rats given the compounds orally in Wesson oil. The note with it: for growth (weight change) of vitamin A-deficient rats: 83 pmoles/day oral in Wesson oil; for growth (weight change) of vitamin A-deficient rats / growth response of vitamin A-deficient rats: 5-day period; for activity relative to atRA in supporting growth of vitamin A-deficient rats: estimate from FIG. 4, 83 pmole/day, 5 days; for growth response of vitamin A-deficient rats: 166 pmoles/day oral in Wesson oil. The text has this:
The first test was to determine if the esterified compounds when given orally could restore normal growth of vitamin A-deficient rats. For this study, Sprague-Dawley, weanling rats were obtained from Harlan (Indianapolis, Ind.). They were fed the purified vitamin A-deficient diet previously described (Suda et al., 1970, J. Nutr. 100:1049-1052) supplemented with vitamins D, E and K (White et al., 1998, Proc. Natl. Acad. Sci. USA 95:13459-13464). When the animals stopped growing and began to lose weight, they were administered the indicated doses per day dissolved in Wesson oil. Controls were given the Wesson oil alone (vehicle group). The weight change over the 5-day study period was analyzed by ANOVA, followed by a matrix of pairwise comparison probabilities using four post-hoc tests when the overall P value was less then 0.05. The post-hoc comparison tests included: Turkey HSD multiple comparisons, Sheffe test, Fisher's least-significant-difference test and the Bonferroni adjustment test.
Weanling male rats were obtained from the Harlan Company and were housed individually in hanging wire cages and fed the vitamin A-deficient diet described previously (Suda et al., 1970, J. Nutr. 100:1049-1052). At approximately 70 days of age, the animals began to show a leveling off of growth and began to show weight loss. At this time, they were used for the following studies: They were given either 0.1 ml of Wesson oil (vehicle) or the indicated dose of atRA dissolved in the vehicle or one of the derivatives at the indicated dose dissolved in the vehicle. Body weights were recorded daily and plotted as cumulative weight gain or loss over the study period as indicated on the graphs. A daily dose of 83 pmoles (25 μg/day) of atRA is near the minimum amount needed to produce normal growth in […] rats as compared to the vehicle controls that continue to lose weight (FIG. 1). […] When the dose was increased to 50 μg/day of atRA or 59.5 μg/day of the t-butyl derivative, as expected, the growth response was identical.

Series [2] deals with vitamin A-deficient rats. Described as above. The note with it: daily oral dose (25 μg/day).
For another series, the system named is normal male rats. The experiment in a line: Acute toxicity of atRA versus t-butyl-RA in normal male rats. Here is the method:
Two independent toxicity studies were carried out with the t-butyl-RA derivative. […] However, the difference in testes weights between the atRA and t-butyl-RA groups was not statistically significant due to rather large biological variability.
We next examined the actute toxicity of the t-butyl derivative as compared to the atRA derivative in two independent trails. In these experiments, normal male rats weighing approximately 250-300 grams were used. They were individually housed in cages and given Purina lab chow as well as water ad libitum. […] This is an extremely large dose, and represents at least 3,600 times the amount of the t-butyl derivative needed to support a physiological growth response in vitamin A-deficient rats. […] Another indication of toxicity is testes weight as illustrated in FIG. 7.

The mark [3] stands for this setting: 1 mmole/kg/day for 5 days, second study (FIG. 6).

Take `CC1=C(/C=C/C(C)=C/C=C/C(C)=C/C(=O)O)C(C)(C)CCC1` [atRA, all-trans-retinoic acid, reference compound]: in the series on vitamin A-deficient rats [1], the “growth (weight change) of vitamin A-deficient rats” value (“growth (weight change)” for short) is recorded as “superior to that of the cholesterol ester-fed group”. In addition, the daily dose near the minimum amount needed to produce normal growth in the series on vitamin A-deficient rats [2] was approximately 83 nmol.
Consider `CC1=C(/C=C/C(C)=C/C=C/C(C)=C/C(=O)O[C@H]2CC[C@@]3(C)C(=CCC4C3CC[C@@]3(C)C4CC[C@@H]3[C@H](C)CCCC(C)C)C2)C(C)(C)CCC1` (stereo partly drawn) [cholesterol ester, all-trans-retinoic acid cholesterol ester], for which, in the series on vitamin A-deficient rats [1], the “growth (weight change)” value is listed as “significantly enhanced growth compared to vehicle control animals” and the “activity relative to atRA in supporting growth of vitamin A-deficient rats” value is on record as “one-third”.
Take `CC1=C(/C=C/C(C)=C/C=C/C(C)=C/C(=O)OC(C)(C)C)C(C)(C)CCC1` [t-butyl-RA, all-trans-retinoic acid tert-butyl ester]: in the series with vitamin A-deficient rats [1], the “growth (weight change)” value is “did not differ significantly from that of the group fed an equal molar amount of atRA”; the “growth response of vitamin A-deficient rats” value was “equivalent”; the “activity relative to atRA in supporting growth of vitamin A-deficient rats” value was “equal to atRA in potency and efficacy”. Moreover, in the series on vitamin A-deficient rats [1] (listed as t-butyl derivative), the “growth response of vitamin A-deficient rats” value was “identical”. Further, in the series on normal male rats (setting [3]), the “apparent toxicity / outward symptoms” value was “no apparent toxicity” and the body weight change entry is recorded as “equal body weight accumulation”. Moreover, the body weight change result in the series on normal male rats (1 mmole/kg/day, 7 days, first study (FIG. 5)) is given as “enabled continued growth”.
